# Test results reported in US20220323594A1, “LIPIDATED CATIONIC PEPTIDE-PEG COMPOSITIONS FOR NUCLEIC ACID DELIVERY” (NUTCRACKER THERAPEUTICS, INC., priority 2019, published 2022).
# How the values were obtained:
# [1] = mRNA encapsulation by fluorescence of Qubit RNA HS dye before and after lysis with Triton X-100; assay type: physicochemical; conditions: percentage of mRNA encapsulation; Fluc mRNA/peptoid formulation, 5:1 mass ratio
# Experimental: (§1) The exemplary amino lipidated cationic peptoids described in Example 2 were combined with firefly luciferase (Fluc) mRNA to form nanoparticle compositions to be evaluated for therapeutic and/or prophylactic purposes in vitro or in vivo. The formulations were prepared according to the protocol of Example 3 and mixed by simple pipetting. The mRNA/peptoid formulation at a 5:1 mass ratio of peptoid:cargo were evaluated by dynamic light scattering (DLS) in order to determine the volume average particle size/diameter (nm) of the mRNA/peptoid complex and the size polydispersity index (PDI) within the formulation. The percentage of mRNA encapsulation for each formulation of the exemplary compounds were determined by fluorescence of the Qubit RNA HS (Invitrogen) dye before and after lysis of particles by Triton X-100.
# HeLa cells [2] = experiment: In vitro expression of firefly luciferase (Fluc) after treatment with Fluc mRNA/amino lipidated peptoid formulations, no PEG or 2% DMG-PEG2000; assay type: cell-based
# Experimental: The efficacy of mRNA/amino lipidated peptoid formulations was evaluated in vitro based on their ability to deliver the firefly luciferase (Fluc) reporter gene to cultured cells. Amino lipidated peptoids were combined with Fluc mRNA at a 5:1 w/w ratio, and the resulting particles were added to cultured HeLa cells at a dose of 100 ng/well (in 100 μL total volume). The resulting luciferase expression (RLU) was measured by a luminescence plate reader after 6 hours and 24 hours of treatment. […] In addition to evaluating nanoparticle complexes formed between mRNA cargos and amino lipidated peptoids alone, multicomponent formulations containing a small amount of PEG-lipid DMG-PEG2000 were also tested for in vitro Fluc mRNA delivery. In these formulations, DMG-PEG2000 was pre-mixed with candidate peptoid at an overall 2% incorporation (w/w), while maintaining the same 5:1 mass ratio of peptoid:mRNA used previously.
# HeLa cells [3] = experiment: In vitro Fluc expression with variable peptoid:mRNA mass ratio, 2% DMG-PEG2000; assay type: cell-based; conditions: 24 h; for Observed Luciferase Expression (RLU) for Given Formulation Mass Ratio 2:1: 2% (w/w) DMG-PEG2000, peptoid:mRNA 2:1; for Observed Luciferase Expression (RLU) for Given Formulation Mass Ratio 3.5:1: 2% (w/w) DMG-PEG2000, peptoid:mRNA 3.5:1; for Observed Luciferase Expression (RLU) for Given Formulation Mass Ratio 5:1: 2% (w/w) DMG-PEG2000, peptoid:mRNA 5:1; for Observed Luciferase Expression (RLU) for Given Formulation Mass Ratio 7.5:1: 2% (w/w) DMG-PEG2000, peptoid:mRNA 7.5:1
# Experimental: The charge ratio dependence of amino lipidated peptoid delivery vehicles was evaluated by formulating particles between Fluc mRNA and delivery vehicles at varying mass ratios. Formulations were varied between 2:1 and 7.5:1 peptoid:mRNA (w/w) ratios (2:1, 3.5:1, 5:1 and 7.5:1). In addition, the role of DMG-PEG2000 was also explored with the mass ratios, either by excluding DMG-PEG2000 or incorporating DMG-PEG2000 at 2% (w/w) relative to amino lipidated peptoid. Fluc expression from these formulations was measured in HeLa cells following treatment for 24 hours. […] FIGS. 6B and 6C show plots of the average bioluminescence (RLU) for HeLa cells treated with the formulations of exemplary amino lipidated cationic peptoid compounds 1-36, all formulated with 2% w/w DMG-PEG2000.
# [4] = Dynamic light scattering (DLS) of mRNA/peptoid formulations: particle size and polydispersity; assay type: physicochemical; conditions: Fluc mRNA/peptoid formulation; for Size PDI: size polydispersity index by DLS, 5:1 mass ratio; for Size (nm): volume average particle size/diameter by DLS, 5:1 mass ratio peptoid:cargo
# Experimental: as §1, with “To prepare nanoparticle formulations, the amino lipidated peptoid is mixed by pipetting with nucleic acid at a mass ratio between approximately 1:1 (peptoid:cargo) and 20:1. Prior to formulation, amino lipidated peptoid and nucleic acid cargo were diluted in ethanol and acidic buffer (PBS adjusted to pH 5.5 with 0.1 M HCl) respectively to a volume ratio of 1:3 and to target a final cargo concentration of approximately 0.05 mg/mL to 0.2 mg/mL. The exemplary” for “The exemplary”
# [5] = MTT viability assay after treatment with Fluc mRNA/amino lipidated peptoid formulations; assay type: cell-based; conditions: human, HeLa cells
# Experimental: Cellular viability was measured following treatment with Fluc mRNA/amino lipidated peptoid formulations by a traditional MTT viability assay. […] In this assay, cells were first treated with peptoid formulations at a final mRNA concentration of 100 ng/well for 8 hours. Cells were then left to grow for 48 hours, after which time they were exposed to 1.5 mg/mL 3-(4,5-dimethylthiazol-2-yl)-2,5-diphenyltetrazolium bromide (MTT) for 2 hours, then lysed using a solubilizing solution of 10% Triton-X 100 in acidic isopropanol (0.1N HCl). The signal corresponding to reduced formazan was normalized to untreated cells to provide a relative viability of each treated condition. […] In general, nearly all conditions maintained at least 80% viability with the only exceptions being formulations of compound 5, 34, and 35.
# [6] = no PEG, peptoid:Fluc mRNA 5:1 w/w, 100 ng/well, 6 h of treatment
# [7] = no PEG, peptoid:Fluc mRNA 5:1 w/w, 100 ng/well, 24 h of treatment
# [8] = with 2% (w/w) DMG-PEG2000, peptoid:mRNA 5:1, 6 h after treatment
# [9] = with 2% (w/w) DMG-PEG2000, peptoid:mRNA 5:1, 24 h after treatment
Compound,% Encapsulation [1] [%],Luciferase Expression (RLU) 6 h (HeLa cells [2]; [6]) [RLU],Luciferase Expression (RLU) 24 h (HeLa cells [2]; [7]) [RLU],Luciferase Expression (RLU) 6 h (HeLa cells [2]; [8]) [RLU],Luciferase Expression (RLU) 24 h (HeLa cells [2]; [9]) [RLU],Observed Luciferase Expression (RLU) for Given Formulation Mass Ratio 2:1 (HeLa cells [3]) [RLU],Observed Luciferase Expression (RLU) for Given Formulation Mass Ratio 3.5:1 (HeLa cells [3]) [RLU],Observed Luciferase Expression (RLU) for Given Formulation Mass Ratio 5:1 (HeLa cells [3]) [RLU],Observed Luciferase Expression (RLU) for Given Formulation Mass Ratio 7.5:1 (HeLa cells [3]) [RLU],Size PDI [4],Size (nm) [4] [nm],"viability at 8 h, 500 ng/well ([5]; Relative Viability (%) 2% PEG) [%]","viability at 8 h, 500 ng/well ([5]; Relative Viability (%) No PEG) [%]"
CCCCCCCCCCN(CC(N)=O)C(=O)CN(CCCCCCCCCC)C(=O)CN(CCc1ccccc1)C(=O)CN(CCc1ccccc1)C(=O)CN(CCCN)C(=O)CN(CCc1ccccc1)C(=O)CN(CCc1ccccc1)C(=O)CN(CCCN)C(=O)CN(CCc1ccccc1)C(=O)CN(CCc1ccccc1)C(=O)CNCCCN [Compound 30],8.4,2.79E+03,1.29E+04,1.79E+03,1.52E+03,4.27E+04,3.43E+03,3.46E+03,1.47E+03,0.455,282.8,88,86.5
CCCCCCCCCCN(CC(N)=O)C(=O)CN(CCCCCCCCCC)C(=O)CN(CCCCCCCCCC)C(=O)CN(CCCCCCCCCC)C(=O)CN(CCCCCCCCCC)C(=O)CN(CCc1ccccc1)C(=O)CN(CCc1ccccc1)C(=O)CN(CCN)C(=O)CN(CCc1ccccc1)C(=O)CN(CCc1ccccc1)C(=O)CNCCN [Compound 20],72.2,9.91E+03,1.55E+04,1.75E+04,1.36E+04,1.31E+03,2.47E+04,1.31E+04,2.27E+04,0.37,326.6,93,87.1
CCCCCCCCCCN(CC(N)=O)C(=O)CN(CCCCCCCCCC)C(=O)CN(CCCCCCCCCC)C(=O)CN(CCCCCCCCCC)C(=O)CN(CCc1ccccc1)C(=O)CN(CCc1ccccc1)C(=O)CN(CC1CCNCC1)C(=O)CN(CCc1ccccc1)C(=O)CN(CCc1ccccc1)C(=O)CN(CC1CCNCC1)C(=O)CN(CCc1ccccc1)C(=O)CN(CCc1ccccc1)C(=O)CN(CC1CCNCC1)C(=O)CN(CCc1ccccc1)C(=O)CN(CCc1ccccc1)C(=O)CNCC1CCNCC1 [Compound 32],50.9,4.25E+02,2.00E+03,4.82E+02,3.40E+02,1.82E+02,3.09E+02,3.77E+03,3.37E+03,0.274,247.5,102,90.7
CCCCCCCCCCN(CC(N)=O)C(=O)CN(CCCCCCCCCC)C(=O)CN(CCc1ccccc1)C(=O)CN(CCc1ccccc1)C(=O)CN(CC1CCNCC1)C(=O)CN(CCc1ccccc1)C(=O)CN(CCc1ccccc1)C(=O)CN(CC1CCNCC1)C(=O)CN(CCc1ccccc1)C(=O)CN(CCc1ccccc1)C(=O)CNCC1CCNCC1 [Compound 33],82.0,4.61E+03,1.14E+04,4.64E+02,5.17E+02,1.76E+04,6.62E+02,7.46E+02,3.12E+02,0.048,435.7,98,99.4
CCCCCCCCCCN(CC(N)=O)C(=O)CN(CCCCCCCCCC)C(=O)CN(CCc1ccccc1)C(=O)CN(CCN)C(=O)CN(CCc1ccccc1)C(=O)CN(CCN)C(=O)CN(CCc1ccccc1)C(=O)CNCCN [Compound 13],90.4,3.67E+00,9.67E+00,3.27E+01,2.67E+00,2.68E+01,1.74E+01,1.39E+02,5.36E+00,0.447,822.6,85.9,90.2
CCCCCCCCCCN(CC(N)=O)C(=O)CN(CCCCCCCCCC)C(=O)CN(CCc1ccccc1)C(=O)CN(CCc1ccccc1)C(=O)CN(CCNC)C(=O)CN(CCc1ccccc1)C(=O)CN(CCc1ccccc1)C(=O)CN(CCNC)C(=O)CN(CCc1ccccc1)C(=O)CN(CCc1ccccc1)C(=O)CNCCNC [Compound 27],50.9,9.88E+02,7.40E+02,3.13E+02,6.36E+02,6.27E+03,8.40E+02,8.69E+02,6.41E+02,0.606,438.7,91.1,93.9
